Results: US9790233B2, “Compositions and methods of modulating 15-PGDH activity” (CASE WESTERN RESERVE UNIVERSITY, priority 2012, dated 2017)
Where two headings read alike, the source gives them in different places.

How the values were obtained:
15-PGDH protein [1] = target: T1, 15-PGDH protein (Homo sapiens (Human), UniProt P15428); assay: Inhibition of enzymatic activity of recombinant 15-PGDH in vitro (tritium transfer from PGE2 or NADH fluorescence); format: biochemical; details: for IC50: read-out: IC50
T1 sequence (P15428 whole entry, the tested form may be a part): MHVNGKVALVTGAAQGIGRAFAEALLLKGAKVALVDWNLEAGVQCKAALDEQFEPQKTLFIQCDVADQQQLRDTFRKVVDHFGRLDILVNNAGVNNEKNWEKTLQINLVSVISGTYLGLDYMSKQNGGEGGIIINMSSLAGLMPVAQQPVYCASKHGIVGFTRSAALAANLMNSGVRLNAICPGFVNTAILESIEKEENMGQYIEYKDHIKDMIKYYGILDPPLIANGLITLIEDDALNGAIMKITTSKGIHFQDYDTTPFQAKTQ

[2] = test system: 15-PGDH luciferase fusion construct in V9m reporter cell line; assay: 15-PGDH-luciferase fusion gene reporter induction, V9m cells; format: cell-based; details: % induction of luciferase activity over basal level
[3] = test system: 15-PGDH luciferase fusion construct in LS174T reporter cell line; assay: 15-PGDH-luciferase fusion gene reporter induction, LS174T cells; format: cell-based; details: Homo sapiens
[4] = test system: 15-PGDH luciferase fusion construct in Vaco503 reporter cell line; assay: 15-PGDH-luciferase fusion gene reporter induction, V503 cells; format: cell-based; details: read-out: V503-3H9-7 reporter activity, % ([…]), V503 reporter cells, […] compound, % induction of luciferase activity over basal level
[5] = test system: 15-PGDH-luciferase fusion reporter in V9m, LS174T and V503 cells; assay: 15-PGDH-luciferase fusion gene reporter induction, stated for the three cell line backgrounds together; format: cell-based; details: FIG. 1
15-PGDH protein [6] = target: T1, 15-PGDH protein; assay: Shift of melting temperature of recombinant 15-PGDH (SYPRO Orange); format: binding; details: FIG. 14
A549 cells = assay: PGE2 levels in the medium of IL1-beta stimulated A549 cells; format: cell-based;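 also: PGE2 in the collected culture medium quantified by enzyme immunoassay (ELISA), with data drawn from three independent experiments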
[7] = Metabolic stability with murine liver S9; format: in vitro ADME; details: mouse, liver S9 fraction; Murine S9 fraction, Phase I cofactors, 0-240 minutes
Experimental: SW054384 (2 mM in DMSO) was incubated with Murine S9 (Lot KWB) fraction and Phase I (NADPH Regenerating System) cofactors for 0-240 minutes. Reactions were quenched with a 1 mL (1:1) of MeOH/(+)IS/0.2% Formic Acid, vortexed for 15 seconds, incubated at RT for 10 minutes and spun for 5 minutes at 2400 rpms. […] Supernatant (800 μL) was transferred to an HPLC vial (w/out insert) and analyzed by HPLC/MS. A: dH2O+0.1% FA B: MeOH+0.1% FA
SW125991 (2 mM in DMSO) was incubated with Murine S9 (Lot KWB) fraction and Phase I (NADPH Regenerating System) cofactors for 0-240 minutes. Reactions were quenched with 1 mL (1:1) of methanol containing 0.2% formic acid and 100 ng/ml IS (IS final conc.=50 ng/ml). Samples were vortexed for 15 seconds, incubated at RT for 10 minutes and spun for 5 minutes at 2400 rpm. […] Supernatant (800 μL) was transferred to an HPLC vial (w/out insert). Analyzed by Qtrap 3200 mass spectrometer.

15-PGDH protein [8] = target: T1, 15-PGDH protein; assay: 15-PGDH protein levels in treated cells (western blot, immuno-fluorescence); format: cell-based; details: […] compound for 48 hours; colon cell lines
15-PGDH mRNA = 15-PGDH mRNA levels by real-time PCR; format: cell-based; details: treated colon cancer cell lines

IC50 higher than that of SW033291 (15-PGDH protein [1]): 10,000 fold
IC50 (15-PGDH protein [1]; 15-PGDH-GST fusion protein, FIG. 11): 5 to 50 µM
IC50 (15-PGDH protein [1]; fluorescent based assay, FIG. 12): 11 µM
IC50 (15-PGDH protein [1]; tritium assay, FIG. 12): 8.4 µM
direct binding to recombinant 15-PGDH (melting temperature shift) (15-PGDH protein [6]): cannot be demonstrated to bind 15-PGDH
half-life [7]: 21.7 min
levels of 15-PGDH protein (western blot) (15-PGDH protein [8]): increase levels of 15-PGDH protein
Structure (SMILES): COc1ccc(OC)c(N(CC(=O)Nc2cccnc2)S(=O)(=O)c2ccccc2)c1 [SW054384]
activation at […] ([2]; read-out: V9M-SC3 Reporter activity ([…]) (%), V9m reporter cells, […] compound, read-out: V9M-SC3 Reporter activity (2.5 μM) (%)): 116%
activation at […] ([2]; read-out: V9M-SC3 Reporter activity ([…]), %, V9m reporter cells, […] compound, read-out: V9M-SC3 Reporter activity (7.5 μM), %): 148%
activation at […] ([3]; read-out: Ls174T-SC1 reporter activity, % ([…]), LS174T reporter cells, […] compound, % induction of luciferase activity over basal level, read-out: Ls174T-SC1 reporter activity, % (2.5 μM)): 130%
activation at […] ([3]; read-out: Ls174T-SC1 reporter activity, % ([…]), LS174T reporter cells, […] compound, % induction of luciferase activity over basal level, read-out: Ls174T-SC1 reporter activity, % (7.5 μM)): 156%
activation at […] ([4]; read-out: V503-3H9-7 reporter activity, % (2.5 μM)): 149%
activation at […] ([4]; read-out: V503-3H9-7 reporter activity, % (7.5 μM)): 157%
concentration of maximum reporter activity [5]: 6.25 µM
luciferase activity of cells expressing 15-PGDH luciferase fusion construct ([5]; V9m, LS174T, V503): increase luciferase activity
lowering of PGE2 levels in media (A549 cells): show activity in lowering PGE2
PGE2 levels in medium (A549 cells; compound added 24 hours before IL1-beta, maintained 26 hours with IL1-beta): lower level of PGE2 produced
Decrease PGE-2 (IL-1beta-A549, %) (A549 cells; media of IL-1beta stimulated A549 cells): 41.96%
15-PGDH mRNA levels (real-time PCR) (15-PGDH mRNA): do not in general alter 15-PGDH mRNA levels
